In patent US11193004B2, “Phosphoric ester preparations with reduced hygroscopicity” (LANXESS Deutschland GmbH, priority 2013, dated 2021):

What was measured:
[1] = Solubility in water of phosphoric esters b)
[2] = physchem; conditions: 25 °C, water

O=P(OC(CCl)CCl)(OC(CCl)CCl)OC(CCl)CCl [TDCP, Tris(2,3-dichloroisopropyl) phosphate]
Solubility in water at 25° C. [1]: 100 µg/mL

CCOP(=O)(OCC)OCC [TEP, Triethyl phosphate]
solubility [2]: > 3000 µg/mL
Solubility in water at 25° C. [1]: miscible

Diphenyl cresyl phosphate [DPC]
Solubility in water at 25° C. [1]: 2.6 µg/mL

Isopropylated triphenyl phosphate [IPP]
Solubility in water at 25° C. [1]: 0.33 µg/mL
